Measured values as given in patent US6893821B2, “Agents that modulate DNA-PK activity and methods of use thereof” (The Regents of the University of California, priority 2000, dated 2005).

What was measured:
[1] = biological target: T1, DNA-PK (Homo sapiens, UniProt P12956+P13010+P78527); test: In vitro DNA-PK phosphorylation assay (affinity-purified DNA-PK, GST-p53 (1-70) substrate); format: biochemical; conditions: 30° C., 30 minutes; ps-ss ODNs 0-1, po-ISS-ODN 20-100, po-ds-ISS-ODN 0-10, genomic DNAs 1-5 ng/reaction
T1 construct: purchased Promega
Description: The in vitro DNA-PK phosphorylation assay was performed according to Hammarsten et al. (2000), supra, with modification. Briefly, affinity-purified DNA-PK (Promega, Mo.) was incubated with various DNA preparations (described below), 0.5 μg of GST-p53 (1-70) and 3.3 μCi of γ-^32p-ATP in a 20 μl reaction buffer (10 mM Tris-Cl, 5 mM MgCl2, 0.3 mM EDTA and 10 μM ATP) at 30° C. for 30 minutes. The reaction was stopped by addition of 4× loading buffer. The samples were boiled, loaded on 9% SDS-PAGE, transferred onto a PVDF membrane and visualized by autoradiography.
(§1) The ODNs (ps-ss) used include an ISS-ODN with an active CpG motif (AACGTT), a methylated ISS-ODN at the ^5C of the CpG dinucleotide (AA*CGTT) and various control ODNs. These ODNs were incubated at concentrations of 0, 0.1, 0.3, or 1 ng/reaction. The po-ISS-ODN was incubated at concentration of 20, 50 or 100 ng/reaction. The po-ds-ISS-ODN was incubated at concentration of 0, 0.5, 1, 2, 5 or 10 ng/reaction. The bacterial or calf thymus DNAs were each incubated at concentration of 1, 2 or 5 ng/reaction. Electrophoretic gel mobility shift assay (EMSA) was performed as previously described. Chu et al. (1999) Immunity 11:721-731; and Li et al., 1999, supra). In vitro IKK kinase assays were performed using purified IKK derived from Sf9 insect cell lysates as was previously described. Zandi et al. (1998) Science 281:1360-1363.

[2] = tested on: IKKα; test: In vitro IKK kinase assay: recombinant IKKα incubated with DNA-PK with ISS-ODN; format: biochemical; conditions: IKKα incubated with DNA-PK in the presence of ISS-ODN; not beyond DNA-PK alone
Description: as §1
To explore a role of ISS-activated DNA-PK in IKK activation we tested whether affinity-purified DNA-PK can directly activate recombinant IKKα or IKKβ purified from Sf9 cells (Zandi et al., 1998, supra). […] Furthermore, although DNA-PKcs phosphorylated IκBα that activity was considerably lower than that achieved by IKKβ plus DNA-PK. […] Recombinant IKKβ was pre-incubated with DNA-PK in the presence or absence of ISS-ODN followed by immunoprecipitation of IKKβ and IκB kinase activity was measured. […] We next determined whether DNA-PK phosphorylates IKKβ.

[3] = biological target: T2, Ku antigen (Ku70/Ku80 heterodimer) (Mus musculus, UniProt P23475+P27641); test: EMSA inhibition study: cold ODN vs [32P]-labeled ds-ISS-ODN binding to Ku (affinity column fraction 20)
T2 construct: from tissue; host or cells: mouse liver (BALB/c)
T2 sequence (P23475 2-608 limits assumed): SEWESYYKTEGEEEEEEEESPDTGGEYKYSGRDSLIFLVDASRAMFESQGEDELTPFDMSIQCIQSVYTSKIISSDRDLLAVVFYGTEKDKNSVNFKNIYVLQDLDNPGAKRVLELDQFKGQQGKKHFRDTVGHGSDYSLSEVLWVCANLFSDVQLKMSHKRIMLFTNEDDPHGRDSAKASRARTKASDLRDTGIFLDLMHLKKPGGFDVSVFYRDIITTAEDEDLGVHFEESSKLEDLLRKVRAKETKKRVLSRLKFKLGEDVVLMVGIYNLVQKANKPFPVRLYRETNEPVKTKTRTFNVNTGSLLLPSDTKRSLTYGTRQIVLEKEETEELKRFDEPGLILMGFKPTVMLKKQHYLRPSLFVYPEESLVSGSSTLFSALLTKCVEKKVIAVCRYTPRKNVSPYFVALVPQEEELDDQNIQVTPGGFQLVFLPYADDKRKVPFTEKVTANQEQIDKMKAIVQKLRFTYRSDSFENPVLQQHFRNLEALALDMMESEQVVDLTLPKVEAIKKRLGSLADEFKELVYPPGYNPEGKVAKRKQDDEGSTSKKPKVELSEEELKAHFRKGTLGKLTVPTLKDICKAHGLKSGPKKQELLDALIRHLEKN
T2 sequence (P27641 whole entry): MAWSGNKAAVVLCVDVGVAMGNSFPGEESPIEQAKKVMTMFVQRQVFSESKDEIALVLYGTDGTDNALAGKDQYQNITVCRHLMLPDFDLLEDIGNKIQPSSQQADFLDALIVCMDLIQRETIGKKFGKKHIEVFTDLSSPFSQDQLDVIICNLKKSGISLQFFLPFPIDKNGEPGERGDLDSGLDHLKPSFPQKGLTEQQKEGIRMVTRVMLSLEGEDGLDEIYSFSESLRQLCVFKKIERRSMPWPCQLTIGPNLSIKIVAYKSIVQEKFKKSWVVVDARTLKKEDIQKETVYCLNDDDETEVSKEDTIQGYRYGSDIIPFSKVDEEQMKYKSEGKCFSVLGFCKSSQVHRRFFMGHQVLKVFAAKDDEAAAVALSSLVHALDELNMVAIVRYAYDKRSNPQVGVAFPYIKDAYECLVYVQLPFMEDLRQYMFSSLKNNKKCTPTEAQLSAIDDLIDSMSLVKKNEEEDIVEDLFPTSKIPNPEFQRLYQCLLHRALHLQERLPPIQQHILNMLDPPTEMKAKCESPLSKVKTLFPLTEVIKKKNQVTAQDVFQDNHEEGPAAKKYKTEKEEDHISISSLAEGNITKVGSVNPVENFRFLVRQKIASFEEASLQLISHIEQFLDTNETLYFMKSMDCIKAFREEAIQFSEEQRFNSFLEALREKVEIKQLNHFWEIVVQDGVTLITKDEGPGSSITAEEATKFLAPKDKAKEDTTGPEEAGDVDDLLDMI
Description: Purification of the ISS binding protein was accomplished by sequential ion exchange, heparin and ISS-ODN affinity chromatography, as follows. Due to the relative small tissue weight per spleen, liver lysate was used after confirming its reactivity to in vivo ISS injection, as described above. Crude liver extracts from 220 mice (BALB/c, Jackson Lab., Bar Harbour, Me.) or 15 New Zealand White rabbits (Simunek, Vista, Calif.) were prepared in homogenization buffer (20 mM HEPES, pH 7.6, 250 mM KCl, 0.1 mM EDTA, 0.5 mM EGTA, 20% glycerol) with 250 mM KCl and protease and phosphatase inhibitors and then centrifuged at 100,000×g for 1.5 hours at 4° C. The supernatant (400 ml) was filtered and loaded onto a Porous 20 QE column (17 ml, Pharmacia). Two μl (10 μg) of each fraction were used in a gel retardation assay to identify the location of proteins containing DNA binding activity using [^32P]-labeled ds-ISS-ODN as a probe. Fractions containing ISS-ODN binding activity were pooled (450 ml), buffered exchanged to low salt (50 mM KCl) and loaded onto a Heparin column (2 ml). The active fractions were subsequently loaded onto a 2 ml ds-ISS-ODN affinity column [CNBr-activated Sepharose 4B (Pharmacia) coupled to 320 μg of ds-ISS-ODNs with the sequence 5′-[…]-3′; SEQ ID NO: 21]. The column was washed with 8 ml of homogenization buffer containing 50 mM KCl and the bound proteins were eluted with a 20 ml linear gradient of 50 mM to 1.55 M KCl. One-ml fractions were collected and 2 μl of each were used to test for DNA binding activity. The active fractions were concentrated, separated by SDS-PAGE and stained with Coomassie Blue. The appearance of two bands with estimated molecular weights of 70 KDa and 80 KDa correlated with the DNA binding activity. Sequence analysis (Harvard Microsequencing Facility) of peptides derived from the two bands identified Ku70 and Ku80, respectively.
Mouse liver extracts were purified through anion (QE), heparin and ISS-based affinity chromatography, as described above. Two μl of each fraction (10 μg) were incubated with [^32 P]-labeled ds-ISS-ODN at 4° C. for 30 minutes. The samples were separated on a 5% acrylamide gel and the protein-DNA complexes were detected by autoradiography. […] The active fractions were separated by sodium dodecyl sulfate-polyacrylamide gel electrophoresis (SDS-PAGE), stained with Coomassie blue and micro-sequenced.
To verify the binding specificity of the Ku protein to ISS-ODN, inhibition studies were performed using cold ss or ds ISS or mutated (M, i.e., control) ODNs. Ten μg of fraction 20 from the affinity column were incubated with [^32P]-labeled ISS-ODN in the presence of unlabeled (0.1, 0.2 and 0.4 μg, respectively) ss-ISS-ODN (lanes 3-5), ds-ISS-ODN (lanes 7-9), ss-M-ODN (lanes 11-13) or ds-M-ODN (lanes 15-17).

DNA-PK activity in vitro (phosphorylation of the N-terminal portion of p53) [1]: stimulated DNA-PK activity | IκB kinase activity of IKKα [2]: Only a small enhancement | interaction of Ku with ODN [3]: specific interaction
Substance: 5′-TGACTGTGAACGTTCGAGATGA-3′ [ISS-ODN]
